Data: US20220322673A1, “Novel Agrochemical Combinations” (UPL LIMITED, priority 2019, published 2022)
Like-named read-outs stand apart in the source and are kept apart here.

Assays:
Format in all cases: in vivo
[1] = tested on: Okra Jassids (Amrasca bigutulla bigutulla); conditions: for Percent control (%) of Okra Jassids, Nymphs + Adults, A01: A01 = 1 day after first spray; for Percent control (%) of Okra Jassids, Nymphs + Adults, A10: A10 (after 1st spray); for Percent control (%) of Okra Jassids, Nymphs + Adults, B03: B03 = 3 days after 2nd spray; for Percent control (%) of Okra Jassids, Nymphs + Adults, B07: B07 (after 2nd spray); for Percent control (%) of Okra Jassids, Nymphs + Adults, B10: B10 (after 2nd spray); for Percent control (%) of Okra Jassids, Nymphs + Adults, B14: B14 (after 2nd spray); for Percent control (%) of Okra Jassids, Nymphs + Adults, C03: C03 = 3 days after third spray; for Percent control (%) of Okra Jassids, Nymphs + Adults, C10: C10 (after third spray)
Text: (§1) In this evaluation, feeding damage & insect population on Okra Leaves before and after sprays is averaged and analyzed for the test of significance. Application method: Three applications (application A, B and C) within an interval of 14 days.

[2] = tested on: Okra Aphids (Aphis gossypii); conditions: for Percent control (%) of Okra Aphids, Nymphs + Adults, A01: A01 = 1 day after first spray; for Percent control (%) of Okra Aphids, Nymphs + Adults, A10: A10 (after 1st spray); for Percent control (%) of Okra Aphids, Nymphs + Adults, B03: B03 = 3 days after 2nd spray; for Percent control (%) of Okra Aphids, Nymphs + Adults, B07: B07 (after 2nd spray); for Percent control (%) of Okra Aphids, Nymphs + Adults, B10: B10 (after 2nd spray); for Percent control (%) of Okra Aphids, Nymphs + Adults, C03: C03 = 3 days after third spray; for Percent control (%) of Okra Aphids, Nymphs + Adults, C10: C10 (after third spray)
Text: as §1

Okra Mites = experiment: Trials on controlling Okra Mites post 2nd and 3rd application (Example 2); conditions: doses gm/ha: OSA 625 + Flonicamid 50 / Acetamipirid 50 / Lancer Gold 650, solo OSA 1250, Flonicamid 75, Acetamipirid 50, Lancer gold 650; for Percent control Mean: Mean of B07, C-01, C-10
Method: Trials were conducted to test the efficacy of the combination of Flonicamid and Orthosilicic acid on controlling Okra Mites at different dosages post 2nd and 3rd application.

Okra Aphids = experiment: Trials of Flonicamid and Orthosilicic acid on controlling Okra Aphids (Example 1); conditions: doses gm/ha: OSA + Flonicamid 625 + 50, Flonicamid 75, OSA 1250
Method: Trials were conducted to test the efficacy of the combination of Flonicamid and Orthosilicic acid on controlling Okra Aphids at different dosages.

[3] = 25% reduced dose rate, gm a.i./ha: OSA 25, Flonicamid 75, Acephate+Imidacloprid 390, Flonicamid+Fipronil 75+37.5, Imidacloprid 18.3, Acetamiprid 11.2
[4] = doses gm a.i./ha: OSA 25, Flonicamid 100, Acephate+Imidacloprid 520, Flonicamid+Fipronil 100+50, Imidacloprid 24.5, Acetamiprid 15
[5] = reduced insecticide dose, gm a.i./ha: OSA 25, Flonicamid (Ulala) 75, Acephate+Imidacloprid 390, Flonicamid+Fipronil 75+37.5, Imidacloprid 18.3, Acetamiprid 11.2

| SMILES | Percent control (%) of Okra Jassids, Nymphs + Adults, A01 [1, 3] | Percent control (%) of Okra Jassids, Nymphs + Adults, A01 [1, 4] | Percent control (%) of Okra Jassids, Nymphs + Adults, A10 [1, 3] | Percent control (%) of Okra Jassids, Nymphs + Adults, A10 [1, 4] | Percent control (%) of Okra Jassids, Nymphs + Adults, B03 [1, 3] | Percent control (%) of Okra Jassids, Nymphs + Adults, B03 [1, 4] | Percent control (%) of Okra Jassids, Nymphs + Adults, B07 [1, 3] | Percent control (%) of Okra Jassids, Nymphs + Adults, B07 [1, 4] | Percent control (%) of Okra Jassids, Nymphs + Adults, B10 [1, 3] | Percent control (%) of Okra Jassids, Nymphs + Adults, B10 [1, 4] | Percent control (%) of Okra Jassids, Nymphs + Adults, B14 [1, 3] | Percent control (%) of Okra Jassids, Nymphs + Adults, B14 [1, 4] | Percent control (%) of Okra Jassids, Nymphs + Adults, C03 [1, 3] | Percent control (%) of Okra Jassids, Nymphs + Adults, C03 [1, 4] | Percent control (%) of Okra Jassids, Nymphs + Adults, C10 [1, 3] | Percent control (%) of Okra Jassids, Nymphs + Adults, C10 [1, 4] | Percent control (%) of Okra Aphids, Nymphs + Adults, A01 [2, 4] | Percent control (%) of Okra Aphids, Nymphs + Adults, A10 [2, 4] | Percent control (%) of Okra Aphids, Nymphs + Adults, B03 [2, 4] | Percent control (%) of Okra Aphids, Nymphs + Adults, B07 [2, 4] | other results |
| --- | --- | --- | --- | --- | --- | --- | --- | --- | --- | --- | --- | --- | --- | --- | --- | --- | --- | --- | --- | --- | --- |
| C/C(=N\C#N)N(C)Cc1ccc(Cl)nc1 [Acetamipirid, Acetamiprid] | 59.3% | 66.4% | 64.4% | 72.4% | 68.8% | 73.9% | 70.9% | 76.7% | 71.3% | 76.9% | 66.6% | 70.9% | 69.5% | 74.8% | 70.7% | 79.3% | 71.1% | 86.1% | 86.8% | 86.7% | Percent control (%) of Okra Aphids, Nymphs + Adults, A01 [2, 5]: 64.8%; Percent control (%) of Okra Aphids, Nymphs + Adults, A14 ([2]; A14 = 14 days after 1st spray, reduced insecticide dose, gm a.i./ha: OSA 25, Flonicamid (Ulala) 75, Acephate+Imidacloprid 390, Flonicamid+Fipronil 75+37.5, Imidacloprid 18.3, Acetamiprid 11.2): 74.7%; Percent control (%) of Okra Aphids, Nymphs + Adults, B03 [2, 5]: 79.7%; Percent control (%) of Okra Aphids, Nymphs + Adults, B07 [2, 5]: 81.8%; Percent control (%) of Okra Aphids, Nymphs + Adults, B10 [2, 4]: 85%; Percent control (%) of Okra Aphids, Nymphs + Adults, B10 [2, 5]: 82.5%; Percent control (%) of Okra Aphids, Nymphs + Adults, C03 [2, 4]: 87.4%; Percent control (%) of Okra Aphids, Nymphs + Adults, C03 [2, 5]: 86.9%; Percent control (%) of Okra Aphids, Nymphs + Adults, C10 [2, 4]: 87.6%; Percent control (%) of Okra Aphids, Nymphs + Adults, C10 [2, 5]: 86.5%; Percent control B07 (Okra Mites): 24.6%; Percent control C-01 (Okra Mites): 26.9%; Percent control C-10 (Okra Mites): 22.2%; Percent control Mean (Okra Mites): 24.56% |
| N#CCNC(=O)c1cnccc1C(F)(F)F [Flonicamid, N-cyanomethyl-4-trifluoromethylnicotinamide] | 71.2% | 74.8% | 85.8% | 89.3% | 82% | 90.7% | 89.3% | 93.3% | 91.5% | 94.2% | 87.4% | 89.3% | 90.2% | 93.3% | 92.5% | 94.4% | 78.2% | 91.9% | 95.1% | 95.5% | Percent control (%) of Okra Aphids, Nymphs + Adults, B10 [2, 4]: 93%; Percent control (%) of Okra Aphids, Nymphs + Adults, C03 [2, 4]: 94.7%; Percent control (%) of Okra Aphids, Nymphs + Adults, C10 [2, 4]: 94.9%; Percent control B07 (Okra Mites): 31.8%; Percent control C-01 (Okra Mites): 39.5%; Percent control C-10 (Okra Mites): 34.0%; Percent control Mean (Okra Mites): 35.1%; Percent control B01 (Okra Aphids; B01): 88.8%; Percent control C-01 (Okra Aphids; C-01): 91.8%; Percent control C-10 (Okra Aphids; C-10): 96%; Percent control Mean (Okra Aphids; Mean of B01, C-01, C-10): 92.2% |
